Experiment: Treatment-emergent adverse events, single dose (part 1)
Type: in vivo, human
Method: In part 1, Japanese participants were randomized to receive placebo or single dose of ensitrelvir (20, 70, 250, 500, 1,000, and 2,000 mg given to cohorts A, B, C, D, E, and J, respectively), suspended in 0.5% methylcellulose, in the fasted state. Additionally, in cohort C, the effect of food on the pharmacokinetics of ensitrelvir was investigated in a 2-group, 2-period crossover design by administering placebo or ensitrelvir (250 mg) in the fasted or fed (high-fat/high-calorie) state. In part 2, Japanese participants were randomized to receive placebo or multiple doses of ensitrelvir, suspended in 0.5% methylcellulose. The multiple-dose regimens were as follows: once-daily doses of ensitrelvir 375 mg on day 1 and 125 mg on days 2 to 5 (cohort F), or 750 mg on day 1 and 250 mg on days 2 to 6 (cohort G) in the fasted state. White participants were randomized to receive placebo or multiple doses of ensitrelvir. The multiple-dose regimens were as follows: once-daily doses of ensitrelvir 375 mg on day 1 and 125 mg on days 2 to 5 (cohort H). Each cohort included 11 participants. In cohort G, the effect of ensitrelvir on the pharmacokinetics of midazolam (syrup) was evaluated in an open label self-controlled crossover design. Midazolam 2 mg alone was administered 2 days prior to initiating ensitrelvir administration (on day −2) and midazolam was coadministered on day 6 with placebo or ensitrelvir in the fasted state to participants following once-daily doses for 5 days of placebo (days 1 to 5) or ensitrelvir (750 mg on day 1 and 250 mg on days 2–5).
The nature, frequency, and severity of TEAEs were evaluated and recorded.

[1] = Cohort A 20 mg single dose, n = 6
[2] = Cohort B 70 mg single dose, n = 6
[3] = Cohort C (fasted) 250 mg single dose, n = 8
[4] = Cohort D 500 mg single dose, n = 6
[5] = Cohort E 1,000 mg single dose, n = 6
[6] = Cohort J 2,000 mg single dose, n = 6

With `Cn1cnc(Cn2c(=O)[nH]/c(=N\c3cc4cn(C)nc4cc3Cl)n(Cc3cc(F)c(F)cc3F)c2=O)n1` [Ensitrelvir, ensitrelvir fumaric acid] the “Abdominal pain, Events” value [1] was 0, the “Abdominal pain, n (%)” value [1] was 0 and the “Chills, Events” value [1] was 0. The “Chills, n (%)” value [1] was 0, the “Feces soft, Events” value [1] was 0 and the “Feces soft, n (%)” value [1] was 0. The “Gastrointestinal disorders, Events” value [1] was 0, the “Gastrointestinal disorders, n (%)” value [1] was 0 and the “General disorders and administration site conditions, Events” value [1] was 0. For the same compound, the “General disorders and administration site conditions, n (%)” value [1] was 0, the “Headache, Events” value [1] was 0 and the “Headache, n (%)” value [1] was 0. For the same compound, the “High density lipoprotein cholesterol decreased, Events” value [1] was 0, the “High density lipoprotein cholesterol decreased, n (%)” value [1] was 0 and the “Investigations, Events” value [1] was 0. For the same compound, the “Investigations, n (%)” value [1] was 0, the “Nausea, Events” value [1] was 0 and the “Nausea, n (%)” value [1] was 0. The “Nervous system disorders, Events” value [1] was 0, the “Nervous system disorders, n (%)” value [1] was 0 and the “Participants with any TEAE, Events” value [1] was 0. For the same compound, the “Participants with any TEAE, n (%)” value [1] was 0, the “Vomiting, Events” value [1] was 0 and the “Vomiting, n (%)” value [1] was 0. For the same compound, the “Abdominal pain, Events” value [2] was 1, the “Abdominal pain, n (%)” value [2] was 1 (16.7) and the “Chills, Events” value [2] was 0. The “Chills, n (%)” value [2] was 0, the “Feces soft, Events” value [2] was 0 and the “Feces soft, n (%)” value [2] was 0. The “Gastrointestinal disorders, Events” value [2] was 1, the “Gastrointestinal disorders, n (%)” value [2] was 1 (16.7) and the “General disorders and administration site conditions, Events” value [2] was 0. For the same compound, the “General disorders and administration site conditions, n (%)” value [2] was 0, the “Headache, Events” value [2] was 1 and the “Headache, n (%)” value [2] was 1 (16.7). The “High density lipoprotein cholesterol decreased, Events” value [2] was 0, the “High density lipoprotein cholesterol decreased, n (%)” value [2] was 0 and the “Investigations, Events” value [2] was 0. The “Investigations, n (%)” value [2] was 0, the “Nausea, Events” value [2] was 0 and the “Nausea, n (%)” value [2] was 0. The “Nervous system disorders, Events” value [2] was 1, the “Nervous system disorders, n (%)” value [2] was 1 (16.7) and the “Participants with any TEAE, Events” value [2] was 2. The “Participants with any TEAE, n (%)” value [2] was 2 (33.3), the “Vomiting, Events” value [2] was 0 and the “Vomiting, n (%)” value [2] was 0. The “Abdominal pain, Events” value [3] was 0, the “Abdominal pain, n (%)” value [3] was 0 and the “Chills, Events” value [3] was 0. For the same compound, the “Chills, n (%)” value [3] was 0, the “Feces soft, Events” value [3] was 0 and the “Feces soft, n (%)” value [3] was 0. For the same compound, the “Gastrointestinal disorders, Events” value [3] was 0, the “Gastrointestinal disorders, n (%)” value [3] was 0 and the “General disorders and administration site conditions, Events” value [3] was 0. For the same compound, the “General disorders and administration site conditions, n (%)” value [3] was 0, the “Headache, Events” value [3] was 0 and the “Headache, n (%)” value [3] was 0. The “High density lipoprotein cholesterol decreased, Events” value [3] was 0, the “High density lipoprotein cholesterol decreased, n (%)” value [3] was 0 and the “Investigations, Events” value [3] was 0. For the same compound, the “Investigations, n (%)” value [3] was 0, the “Nausea, Events” value [3] was 0 and the “Nausea, n (%)” value [3] was 0. The “Nervous system disorders, Events” value [3] was 0, the “Nervous system disorders, n (%)” value [3] was 0 and the “Participants with any TEAE, Events” value [3] was 0. The “Participants with any TEAE, n (%)” value [3] was 0, the “Vomiting, Events” value [3] was 0 and the “Vomiting, n (%)” value [3] was 0. The “Abdominal pain, Events” value [4] was 0, the “Abdominal pain, n (%)” value [4] was 0 and the “Chills, Events” value [4] was 0. For the same compound, the “Chills, n (%)” value [4] was 0, the “Feces soft, Events” value [4] was 0 and the “Feces soft, n (%)” value [4] was 0. The “Gastrointestinal disorders, Events” value [4] was 0, the “Gastrointestinal disorders, n (%)” value [4] was 0 and the “General disorders and administration site conditions, Events” value [4] was 0. For the same compound, the “General disorders and administration site conditions, n (%)” value [4] was 0, the “Headache, Events” value [4] was 0 and the “Headache, n (%)” value [4] was 0. For the same compound, the “High density lipoprotein cholesterol decreased, Events” value [4] was 0, the “High density lipoprotein cholesterol decreased, n (%)” value [4] was 0 and the “Investigations, Events” value [4] was 0. The “Investigations, n (%)” value [4] was 0, the “Nausea, Events” value [4] was 0 and the “Nausea, n (%)” value [4] was 0. For the same compound, the “Nervous system disorders, Events” value [4] was 0, the “Nervous system disorders, n (%)” value [4] was 0 and the “Participants with any TEAE, Events” value [4] was 0. The “Participants with any TEAE, n (%)” value [4] was 0, the “Vomiting, Events” value [4] was 0 and the “Vomiting, n (%)” value [4] was 0. For the same compound, the “Abdominal pain, Events” value [5] was 0, the “Abdominal pain, n (%)” value [5] was 0 and the “Chills, Events” value [5] was 0. The “Chills, n (%)” value [5] was 0, the “Feces soft, Events” value [5] was 0 and the “Feces soft, n (%)” value [5] was 0. The “Gastrointestinal disorders, Events” value [5] was 0, the “Gastrointestinal disorders, n (%)” value [5] was 0 and the “General disorders and administration site conditions, Events” value [5] was 0. For the same compound, the “General disorders and administration site conditions, n (%)” value [5] was 0, the “Headache, Events” value [5] was 0 and the “Headache, n (%)” value [5] was 0. For the same compound, the “High density lipoprotein cholesterol decreased, Events” value [5] was 6, the “High density lipoprotein cholesterol decreased, n (%)” value [5] was 6 (100) and the “Investigations, Events” value [5] was 6. For the same compound, the “Investigations, n (%)” value [5] was 6 (100), the “Nausea, Events” value [5] was 0 and the “Nausea, n (%)” value [5] was 0. The “Nervous system disorders, Events” value [5] was 0, the “Nervous system disorders, n (%)” value [5] was 0 and the “Participants with any TEAE, Events” value [5] was 6. The “Participants with any TEAE, n (%)” value [5] was 6 (100), the “Vomiting, Events” value [5] was 0 and the “Vomiting, n (%)” value [5] was 0. The “High density lipoprotein cholesterol decreased, n (%)” value (Cohort E 1,000 mg single dose, n = 6, listed as ensitrelvir) was 6/6, the “Abdominal pain, Events” value [6] was 0 and the “Abdominal pain, n (%)” value [6] was 0. The “Chills, Events” value [6] was 1, the “Chills, n (%)” value [6] was 1 (16.7) and the “Feces soft, Events” value [6] was 1. For the same compound, the “Feces soft, n (%)” value [6] was 1 (16.7), the “Gastrointestinal disorders, Events” value [6] was 3 and the “Gastrointestinal disorders, n (%)” value [6] was 1 (16.7). For the same compound, the “General disorders and administration site conditions, Events” value [6] was 1, the “General disorders and administration site conditions, n (%)” value [6] was 1 (16.7) and the “Headache, Events” value [6] was 1. The “Headache, n (%)” value [6] was 1 (16.7), the “High density lipoprotein cholesterol decreased, Events” value [6] was 6 and the “High density lipoprotein cholesterol decreased, n (%)” value [6] was 6 (100). For the same compound, the “Investigations, Events” value [6] was 6, the “Investigations, n (%)” value [6] was 6 (100) and the “Nausea, Events” value [6] was 1. For the same compound, the “Nausea, n (%)” value [6] was 1 (16.7), the “Nervous system disorders, Events” value [6] was 1 and the “Nervous system disorders, n (%)” value [6] was 1 (16.7). The “Participants with any TEAE, Events” value [6] was 11, the “Participants with any TEAE, n (%)” value [6] was 6 (100) and the “Vomiting, Events” value [6] was 1. The “Vomiting, n (%)” value [6] was 1 (16.7), the “High density lipoprotein cholesterol decreased, n (%)” value (Cohort J 2,000 mg single dose, n = 6, listed as ensitrelvir) was 6/6 and the overall tolerability (single and multiple doses, all doses tested, healthy participants) was “well tolerated across all doses tested”. The “severity of adverse events” value (single dose 20–2,000 mg, cohorts A–E and J) was “a All adverse events were mild”.

— article PMC9578392, “Safety, Tolerability, and Pharmacokinetics of the Novel Antiviral Agent Ensitrelvir Fumaric Acid, a SARS-CoV-2 3CL Protease Inhibitor, in Healthy Adults” (Antimicrobial Agents and Chemotherapy, 2022)
